From patent publication US7910751B2, “Heterocyclidene acetamide derivative” (Mochida Pharmaceutical Co., Ltd., priority 2005, dated 2011) come the findings set out here.

The assay deals with T1, human TRPV1 (Homo sapiens, UniProt Q8NER1).
T1 construct: expressed in transfected cells; host or cells: CHO-K1
T1 sequence (Q8NER1 whole entry): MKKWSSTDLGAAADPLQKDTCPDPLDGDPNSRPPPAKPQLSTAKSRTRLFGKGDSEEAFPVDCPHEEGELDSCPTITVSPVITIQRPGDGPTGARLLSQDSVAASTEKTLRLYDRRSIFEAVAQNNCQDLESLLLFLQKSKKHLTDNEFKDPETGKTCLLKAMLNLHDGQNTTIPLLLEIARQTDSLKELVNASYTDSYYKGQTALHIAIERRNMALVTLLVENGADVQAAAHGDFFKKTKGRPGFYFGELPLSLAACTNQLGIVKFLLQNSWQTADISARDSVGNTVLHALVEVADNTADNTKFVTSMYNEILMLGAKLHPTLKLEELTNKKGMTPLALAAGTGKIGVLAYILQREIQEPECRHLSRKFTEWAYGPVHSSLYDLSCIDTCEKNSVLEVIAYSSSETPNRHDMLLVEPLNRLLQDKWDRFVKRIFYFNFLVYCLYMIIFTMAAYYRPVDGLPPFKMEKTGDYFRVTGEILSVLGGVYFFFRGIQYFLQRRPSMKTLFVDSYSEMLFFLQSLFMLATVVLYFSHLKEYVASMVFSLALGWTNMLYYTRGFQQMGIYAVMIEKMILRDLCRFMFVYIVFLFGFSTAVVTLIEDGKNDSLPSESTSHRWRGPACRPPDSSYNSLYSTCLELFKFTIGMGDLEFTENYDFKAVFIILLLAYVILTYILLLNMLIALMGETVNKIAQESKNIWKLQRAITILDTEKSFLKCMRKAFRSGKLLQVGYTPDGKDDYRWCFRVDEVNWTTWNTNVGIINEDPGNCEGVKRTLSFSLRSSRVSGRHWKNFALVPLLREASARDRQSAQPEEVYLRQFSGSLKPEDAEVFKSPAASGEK
Nature of the assay: Measurement of capsaicin-induced Ca influx in human TRPV1 transformed CHO cell line using FDSS-6000. The format is cell-based. The conditions noted are these: concentration at which the capsaicin concentration-reaction curve is shifted two times to the right, human TRPV1 transformed CHO cells. An excerpt: [Measurement of Capsaicin-Induced Ca Influx in Human TRPV1 Transformed CHO Cell Line]
(1) Establishment of Human TRPV1 Transformed CHO Cell Line
Human vanilloid receptor 1 (hTRPV1) cDNA was cloned from a human brain. The cloned hTRPV1 cDNA was incorporated in a pCAGGS vector. The gene of the vector was introduced to a CHO-K1 cell line, thus performing transformation. Clones obtained by limiting dilution were stimulated with capsaicin. Clones with a high responsiveness were selected using an increase in the Ca concentration as an indicator. The selected clones were used for the following experiment.
(2) Measurement of Ca Influx Using FDSS-6000
The human TRPV1 transformed CHO cells were seeded in a 96-well plate (with black walls and transparent bottoms, manufactured by Greiner) at a density of 40,000 cells per well. The cells were cultured at 37° C. in 5% CO2 for one night. A loading solution of FLIPR Calcium 3 assay kit (manufactured by Molecular Devices Corporation) containing 2.5 mmol/L of probenecid was then added to each of the wells in the same amount as the culture medium, and the cells were cultured at 37° C. for 60 minutes. After the cells were stimulated with capsaicin (1 nmol/L to 1 μmol/L), the change in the Ca concentration in the cells was measured using FDSS-6000 (λex: 480 nm, λem: 540 nm, manufactured by Hamamatsu Photonics K.K.) for three minutes. The integrated values of the increase rate of the Ca concentration in the cells were calculated for a group treated with the compounds of the present invention and a group treated with a medium, thus allowing capsaicin concentration-reaction curves to be obtained. A concentration (A2 value) of each of the compounds of the present invention, at which the capsaicin concentration-reaction curve obtained when the cells were treated with the medium was shifted two times to the right side, was calculated. The inhibiting effects of the test compounds were compared using this value as an indicator.
In the case where a compound of the present invention is an agonist, when the cells are treated with the compound of the present invention prior to the capsaicin stimulation, the Ca influx is observed. In Table 1, compounds of the present invention having an A2 value of less than 100 nM are represented by A, and compounds having an A2 value of 100 nM or more are represented by B. When the A2 values of the compounds of the present invention were measured by the above-described method, the compounds have an intensity of 1 μM or less.
On to `Cn1nc(NC(=O)/C=C2\CCCOc3cc(C(F)(F)F)ccc32)c2cccnc21` [Example 41, (E)-2-(8-trifluoromethyl-3,4-dihydrobenzo[b]oxepin-5(2H)-ylidene)-N-(1-methyl-1H-pyrazolo[3,4-b]pyridin-3-yl)acetamide], for which the “A2 VALUE” was “B (compounds having an A2 value of 100 nM or more are represented by B)”. `CCC(F)(F)C(=O)N1CC/C(=C\C(=O)Nc2cccc3c2CC(O)CN3)c2ccc(C(F)(F)F)cc21` (stereo not drawn) [Example 184, (E)-2-(1-(2,2-difluorobutanoyl)-7-trifluoromethyl-2,3-dihydroquinolin-4(1H)-ylidene)-N-(3-hydroxy-1,2,3,4-tetrahydroquinolin-5-yl)acetamide]: the “A2 VALUE” was “A (compounds of the present invention having an A2 value of less than 100 nM are represented by A)”.

Regarding `O=C(/C=C1\CCOc2nc(C(F)(F)F)ccc21)Nc1cccc2c1CC(O)CC2` (stereo not drawn) [Example 238, (E)-2-(7-trifluoromethyl-3,4-dihydro-2H-pyrano[2,3-b]pyridin-4-ylidene)-N-(7-hydroxy-5,6,7,8-tetrahydronaphthalen-1-yl)acetamide], the “A2 VALUE” is on record as “A (compounds of the present invention having an A2 value of less than 100 nM are represented by A)”.

Turning to `O=C(/C=C1\CC2(CCC2)Oc2cc(C(F)(F)F)ccc21)Nc1cccc2c1CC(O)CN2` (stereo not drawn) [Example 252, (E)-N-(3-hydroxy-1,2,3,4-tetrahydroquinolin-5-yl)-2-(7-trifluoromethyl-2,2-cyclobutylchroman-4-ylidene)acetamide], the “A2 VALUE” is reported as “A (compounds of the present invention having an A2 value of less than 100 nM are represented by A)”.

As to `O=C(/C=C1\CCCOc2cc(C(F)(F)F)ccc21)Nc1ccc(C(F)(F)F)cc1` [Example 15, (E)-2-(8-trifluoromethyl-3,4-dihydrobenzo[b]oxepin-5(2H)-ylidene)-N-(4-trifluoromethylphenyl)acetamide], the “A2 VALUE” was “B (compounds having an A2 value of 100 nM or more are represented by B)”.

`CC(C)c1ccc2c(c1)OCC/C2=C\C(=O)Nc1cccc2c1CC(O)CN2` (stereo not drawn) [Example 207, (E)-2-(7-isopropyl-chroman-4-ylidene)-N-(3-hydroxy-1,2,3,4-tetrahydroquinolin-5-yl)acetamide]: the “A2 VALUE” is listed as “A (compounds of the present invention having an A2 value of less than 100 nM are represented by A)”. Next, `O=C(C=C1COCc2cc(C(F)(F)F)ccc21)Nc1cccc2c1CC(O)CC2` (stereo in doubt) [Example 237, (E)-2-(7-trifluoromethyl-isochroman-4-ylidene)-N-(7-hydroxy-5,6,7,8-tetrahydronaphthalen-1-yl)acetamide]: “A (compounds of the present invention having an A2 value of less than 100 nM are represented by A)”. For `CCCCC(=O)N1CC/C(=C\C(=O)Nc2cccc3ccc(O)cc23)c2ccc(C(F)(F)F)cc21` [Example 74, (E)-2-(1-pentanoyl-7-trifluoromethyl-2,3-dihydroquinolin-4(1H)-ylidene)-N-(7-hydroxynaphthalen-1-yl)acetamide], the “A2 VALUE” is given as “A (compounds of the present invention having an A2 value of less than 100 nM are represented by A)”. `O=C(/C=C1\CCCOc2cc(C(F)(F)F)ccc21)Nc1cccc2c1CC(O)C(O)C2` (stereo not drawn) [Example 65, (E)-2-(8-trifluoromethyl-3,4-dihydrobenzo[b]oxepin-5-(2H)-ylidene)-N-(trans-6,7-dihydroxy-5,6,7,8-tetrahydronaphthalen-1-yl)acetamide]: the “A2 VALUE” is “A (compounds of the present invention having an A2 value of less than 100 nM are represented by A)”.

With `CN1CCC/C(=C\C(=O)Nc2ccc3cccnc3c2)c2ccc(C(F)(F)F)cc21` [Example 196, (E)-2-(1-methyl-8-trifluoromethyl-1,2,3,4-tetrahydro-5H-benzo[b]azepin-5-ylidene)-N-(quinolin-7-yl)acetamide], the “A2 VALUE” was “A (compounds of the present invention having an A2 value of less than 100 nM are represented by A)”. Next, `CC(C)(C)CC(=O)N1CC/C(=C\C(=O)Nc2ccc3cccnc3c2)c2ccc(C(F)(F)F)cc21` [Example 76, (E)-2-(1-(3,3-dimethylbutanoyl)-7-trifluoromethyl-2,3-dihydroquinolin-4(1H)-ylidene)-N-(quinolin-7-yl)acetamide]: “A (compounds of the present invention having an A2 value of less than 100 nM are represented by A)”; `CCCCC(=O)N1CC/C(=C\C(=O)Nc2ccc3cccnc3c2)c2ccc(C(F)(F)F)cc21` [Example 50, (E)-2-(7-trifluoromethyl-2,3-dihydro-1-pentanoylquinolin-4(1H)-ylidene)-N-(quinolin-7-yl)acetamide]: “A (compounds of the present invention having an A2 value of less than 100 nM are represented by A)”.

`O=C(/C=C1\CCCOc2cc(C(F)(F)F)ccc21)Nc1ccc2c(c1)C(CO)CCC2` (stereo not drawn) [Example 179, (E)-2-(8-trifluoromethyl-3,4-dihydrobenzo[b]oxepin-5(2H)-ylidene)-N-(8-hydroxymethyl-5,6,7,8-tetrahydronaphthalen-2-yl)acetamide]: the “A2 VALUE” was “A (compounds of the present invention having an A2 value of less than 100 nM are represented by A)”. Under `CN1C(=O)CCc2ccc(NC(=O)/C=C3\CCCOc4cc(C(F)(F)F)ccc43)cc21` [Example 178, (E)-2-(8-trifluoromethyl-3,4-dihydrobenzo[b]oxepin-5(2H)-ylidene)-N-(1-methyl-2-oxo-1,2,3,4-tetrahydroquinolin-7-yl)acetamide] stands “A (compounds of the present invention having an A2 value of less than 100 nM are represented by A)”; under `O=C(/C=C1\CCCOc2cc(C(F)(F)F)ccc21)Nc1ccc2c(c1)C(=O)CCC2` [Example 23, (E)-2-(8-trifluoromethyl-3,4-dihydrobenzo[b]oxepin-5(2H)-ylidene)-N-(1,2,3,4-tetrahydro-1-oxonaphthalen-7-yl)acetamide], “A (compounds of the present invention having an A2 value of less than 100 nM are represented by A)”; under `Cc1nc(-c2ccc(Cl)cc2)sc1CNC(=O)/C=C1\CCCOc2cc(C(F)(F)F)ccc21` [Example 39, (E)-N-((2-(4-chlorophenyl)-4-methylthiazol-5-yl)methyl)-2-(8-trifluoromethyl-3,4-dihydrobenzo[b]oxepin-5(2H)-ylidene)acetamide], “B (compounds having an A2 value of 100 nM or more are represented by B)”.

As to `O=C(/C=C1\CCOc2cc(C(F)(F)F)ccc21)Nc1cccc2cnccc12` [Example 7, (E)-2-(7-trifluoromethyl-chroman-4-ylidene)-N-(isoquinolin-5-yl)acetamide], the “A2 VALUE” is “A (compounds of the present invention having an A2 value of less than 100 nM are represented by A)”. Under `O=C(/C=C1\CCN(c2ccc(Cl)cc2)c2cc(C(F)(F)F)ccc21)NC1CCc2cccnc2C1` (stereo not drawn) [Example 56, (E)-2-(1-(4-chlorophenyl)-7-trifluoromethyl-2,3-dihydro-4(1H)-ylidene)-N-(5,6,7,8-tetrahydroquinolin-7-yl)acetamide] stands “A (compounds of the present invention having an A2 value of less than 100 nM are represented by A)”; under `O=C(/C=C1\CCOc2cc(C(F)(F)F)ccc21)Nc1cccc2c1CC(O)CO2` (stereo not drawn) [Example 125, (E)-N-(3-hydroxy-chroman-5-yl)-2-(7-trifluoromethyl-chroman-4-ylidene)acetamide], “A (compounds of the present invention having an A2 value of less than 100 nM are represented by A)”. As to `O=C(/C=C1\CCCOc2cc(C(F)(F)F)ccc21)Nc1cccc2c1CC(O)CN2` (stereo not drawn) [Example 68, (E)-2-(8-trifluoromethyl-3,4-dihydrobenzo[b]oxepin-5(2H)-ylidene)-N-(3-hydroxy-1,2,3,4-tetrahydroquinolin-5-yl)acetamide], the “A2 VALUE” is reported as “A (compounds of the present invention having an A2 value of less than 100 nM are represented by A)”.

`O=C(/C=C1\CCN(C(=O)C2CCCCC2)c2cc(C(F)(F)F)ccc21)Nc1ccc2cccnc2c1` [Example 52, (E)-2-(7-trifluoromethyl-2,3-dihydro-1-cyclohexanecarbonylquinolin-4(1H)-ylidene)-N-(quinolin-7-yl)acetamide]: the “A2 VALUE” is reported as “A (compounds of the present invention having an A2 value of less than 100 nM are represented by A)”.
